Test results as given in PubChem BioAssay AID330 (DTP/NCI, 2004).
Values joined by “and” are separate entries in the source; they are usually repeats but may differ in a detail not shown here. Equal entries are not always repeated. Inconclusive results and toxic doses are left out.

System: P388 leukemia ip, CD2F1 mice, survival T/C
Test: NCI In Vivo Anticancer Drug Screen. Data for tumor model P388 Leukemia (intraperitoneal) in CD2F1 (CDF1) mice
Details: endpoint: median survival time, higher = longer survival
In short: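 Mice carrying the transplanted tumor received test compound or vehicle. Survival was recorded in each group, and the value is the treated-group measurement divided by that of the vehicle-treated control group.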

COc1cc2c[n+](C)c3c4cc5c(cc4ccc3c2cc1OC)OCO5
T/C (dose: 0.5 mg/kg/injection, schedule: Q01DX005 (ip), vehicle: saline): 106 % of control | T/C (dose: 1.0 mg/kg/injection, schedule: Q01DX005 (ip), vehicle: saline): 118 % of control | T/C (dose: 1.25 mg/kg/injection, schedule: Q01DX009 (ip), vehicle: DMSO): 124 % of control | T/C (dose: 2.0 mg/kg/injection, schedule: Q01DX005 (ip), vehicle: saline): 115 % of control | T/C (dose: 2.0 mg/kg/injection, schedule: Q03HX008 (ip), vehicle: water): 109 % of control | T/C (dose: 2.0 mg/kg/injection, schedule: Q03HX016 (ip), vehicle: water): 121 % of control | T/C (dose: 2.0 mg/kg/injection, schedule: Q03HX024 (ip), vehicle: saline with Tween-80): 150 % of control | T/C (dose: 4.0 mg/kg/injection, schedule: Q01DX009 (ip), vehicle: saline): 152 % of control | T/C (dose: 4.0 mg/kg/injection, schedule: Q01DX009 (sc), vehicle: water): 97 % of control | T/C (dose: 4.0 mg/kg/injection, schedule: Q03HX008 (ip), vehicle: water): 114 % of control | T/C (dose: 4.0 mg/kg/injection, schedule: Q03HX016 (ip), vehicle: water): 119 % of control | T/C (dose: 5.0 mg/kg/injection, schedule: Q01DX009 (ip), vehicle: DMSO): 153 % of control | T/C (dose: 8.0 mg/kg/injection, schedule: Q01DX009 (ip), vehicle: saline with Tween-80): 166 % of control | T/C (dose: 8.0 mg/kg/injection, schedule: Q01DX009 (ip), vehicle: saline): 152 % of control | T/C (dose: 8.0 mg/kg/injection, schedule: Q01DX009 (oral), vehicle: water): 102 % of control | T/C (dose: 8.0 mg/kg/injection, schedule: Q01DX009 (sc), vehicle: saline with Tween-80): 96 % of control | T/C (dose: 8.0 mg/kg/injection, schedule: Q01DX009 (sc), vehicle: water): 97 % of control | T/C (dose: 8.0 mg/kg/injection, schedule: Q03HX008 (ip), vehicle: water): 87 % of control | T/C (dose: 8.0 mg/kg/injection, schedule: Q03HX016 (ip), vehicle: saline with Tween-80): 153 % of control | T/C (dose: 8.0 mg/kg/injection, schedule: Q03HX016 (ip), vehicle: water): 92 % of control | T/C (dose: 8.0 mg/kg/injection, schedule: Q03HX024 (ip), vehicle: saline with Tween-80): 165 % of control | T/C (dose: 8.0 mg/kg/injection, schedule: Q04DX003 (ip), vehicle: water): 113 % of control | T/C (dose: 10.0 mg/kg/injection, schedule: Q01DX009 (ip), vehicle: DMSO): 153 % of control and 155 % of control | T/C (dose: 16.0 mg/kg/injection, schedule: Q01DX001 (ip), vehicle: water): 106 % of control | T/C (dose: 16.0 mg/kg/injection, schedule: Q01DX001 (oral), vehicle: water): 103 % of control | T/C (dose: 16.0 mg/kg/injection, schedule: Q01DX001 (sc), vehicle: water): 98 % of control | T/C (dose: 16.0 mg/kg/injection, schedule: Q01DX009 (ip), vehicle: saline with Tween-80): 157 % of control | T/C (dose: 16.0 mg/kg/injection, schedule: Q01DX009 (ip), vehicle: saline): 171 % of control | T/C (dose: 16.0 mg/kg/injection, schedule: Q01DX009 (oral), vehicle: water): 94 % of control | T/C (dose: 16.0 mg/kg/injection, schedule: Q01DX009 (sc), vehicle: saline with Tween-80): 97 % of control | T/C (dose: 16.0 mg/kg/injection, schedule: Q03HX008 (ip), vehicle: saline with Tween-80): 167 % of control | T/C (dose: 16.0 mg/kg/injection, schedule: Q04DX003 (ip), vehicle: water): 119 % of control | T/C (dose: 16.0 mg/kg/injection, schedule: Q08DX002 (ip), vehicle: water): 112 % of control | T/C (dose: 20.0 mg/kg/injection, schedule: Q01DX009 (ip), vehicle: DMSO): 155 % of control and 163 % of control and 190 % of control | T/C (dose: 20.0 mg/kg/injection, schedule: Q01DX009 (ip), vehicle: saline): 191 % of control | T/C (dose: 25.0 mg/kg/injection, schedule: Q01DX009 (ip), vehicle: saline with Tween-80): 114 % of control | T/C (dose: 25.0 mg/kg/injection, schedule: Q01DX009 (ip), vehicle: water): 100 % of control and 87 % of control | T/C (dose: 32.0 mg/kg/injection, schedule: Q01DX001 (ip), vehicle: water): 102 % of control | T/C (dose: 32.0 mg/kg/injection, schedule: Q01DX001 (oral), vehicle: water): 103 % of control | T/C (dose: 32.0 mg/kg/injection, schedule: Q01DX001 (sc), vehicle: saline with Tween-80): 100 % of control | T/C (dose: 32.0 mg/kg/injection, schedule: Q01DX001 (sc), vehicle: water): 101 % of control | T/C (dose: 32.0 mg/kg/injection, schedule: Q01DX005 (ip), vehicle: saline): 168 % of control | T/C (dose: 32.0 mg/kg/injection, schedule: Q01DX009 (ip), vehicle: saline with Tween-80): 100 % of control | T/C (dose: 32.0 mg/kg/injection, schedule: Q01DX009 (ip), vehicle: water): 185 % of control | T/C (dose: 32.0 mg/kg/injection, schedule: Q01DX009 (oral), vehicle: saline with Tween-80): 107 % of control | T/C (dose: 32.0 mg/kg/injection, schedule: Q01DX009 (oral), vehicle: water): 93 % of control | T/C (dose: 32.0 mg/kg/injection, schedule: Q01DX009 (sc), vehicle: saline with Tween-80): 92 % of control | T/C (dose: 32.0 mg/kg/injection, schedule: Q03HX008 (ip), vehicle: saline with Tween-80): 161 % of control | T/C (dose: 32.0 mg/kg/injection, schedule: Q03HX016 (ip), vehicle: saline with Tween-80): 100 % of control | T/C (dose: 32.0 mg/kg/injection, schedule: Q04DX003 (ip), vehicle: other): 154 % of control | T/C (dose: 32.0 mg/kg/injection, schedule: Q04DX003 (ip), vehicle: water): 119 % of control | T/C (dose: 32.0 mg/kg/injection, schedule: Q08DX002 (ip), vehicle: water): 113 % of control | T/C (dose: 40.0 mg/kg/injection, schedule: Q01DX009 (ip), vehicle: saline): 105 % of control and 96 % of control | T/C (dose: 64.0 mg/kg/injection, schedule: Q01DX001 (ip), vehicle: water): 117 % of control | T/C (dose: 64.0 mg/kg/injection, schedule: Q01DX001 (oral), vehicle: water): 102 % of control | T/C (dose: 64.0 mg/kg/injection, schedule: Q01DX001 (sc), vehicle: saline with Tween-80): 98 % of control | T/C (dose: 64.0 mg/kg/injection, schedule: Q01DX001 (sc), vehicle: water): 95 % of control | T/C (dose: 64.0 mg/kg/injection, schedule: Q01DX009 (oral), vehicle: saline with Tween-80): 100 % of control | T/C (dose: 64.0 mg/kg/injection, schedule: Q01DX009 (oral), vehicle: water): 101 % of control | T/C (dose: 64.0 mg/kg/injection, schedule: Q01DX009 (sc), vehicle: saline with Tween-80): 87 % of control | T/C (dose: 64.0 mg/kg/injection, schedule: Q04DX003 (ip), vehicle: other): 150 % of control and 181 % of control | T/C (dose: 64.0 mg/kg/injection, schedule: Q04DX003 (ip), vehicle: saline with Tween-80): 151 % of control | T/C (dose: 64.0 mg/kg/injection, schedule: Q08DX002 (ip), vehicle: water): 115 % of control | T/C (dose: 100.0 mg/kg/injection, schedule: Q04DX002 (ip), vehicle: Klucel (hydroxypropylcellulose) (HPC)): 154 % of control | T/C (dose: 120.0 mg/kg/injection, schedule: Q04DX003 (ip), vehicle: distilled water + Tween-80): 99 % of control | T/C (dose: 128.0 mg/kg/injection, schedule: Q01DX001 (oral), vehicle: water): 95 % of control | T/C (dose: 128.0 mg/kg/injection, schedule: Q01DX001 (sc), vehicle: saline with Tween-80): 97 % of control | T/C (dose: 128.0 mg/kg/injection, schedule: Q01DX009 (oral), vehicle: saline with Tween-80): 100 % of control | T/C (dose: 128.0 mg/kg/injection, schedule: Q01DX009 (oral), vehicle: water): 103 % of control | T/C (dose: 128.0 mg/kg/injection, schedule: Q01DX009 (sc), vehicle: saline with Tween-80): 88 % of control | T/C (dose: 128.0 mg/kg/injection, schedule: Q04DX003 (ip), vehicle: other): 107 % of control | T/C (dose: 128.0 mg/kg/injection, schedule: Q04DX003 (ip), vehicle: saline with Tween-80): 166 % of control | T/C (dose: 128.0 mg/kg/injection, schedule: Q08DX002 (ip), vehicle: saline with Tween-80): 155 % of control | T/C (dose: 200.0 mg/kg/injection, schedule: Q04DX002 (ip), vehicle: Klucel (hydroxypropylcellulose) (HPC)): 105 % of control and 122 % of control | T/C (dose: 256.0 mg/kg/injection, schedule: Q01DX001 (ip), vehicle: saline with Tween-80): 161 % of control | T/C (dose: 256.0 mg/kg/injection, schedule: Q01DX001 (oral), vehicle: saline with Tween-80): 104 % of control | T/C (dose: 256.0 mg/kg/injection, schedule: Q01DX001 (sc), vehicle: saline with Tween-80): 106 % of control | T/C (dose: 256.0 mg/kg/injection, schedule: Q01DX009 (oral), vehicle: saline with Tween-80): 100 % of control | T/C (dose: 256.0 mg/kg/injection, schedule: Q08DX002 (ip), vehicle: saline with Tween-80): 160 % of control | T/C (dose: 400.0 mg/kg/injection, schedule: Q04DX002 (ip), vehicle: Klucel (hydroxypropylcellulose) (HPC)): 87 % of control | T/C (dose: 512.0 mg/kg/injection, schedule: Q01DX001 (oral), vehicle: saline with Tween-80): 106 % of control | T/C (dose: 512.0 mg/kg/injection, schedule: Q01DX001 (sc), vehicle: saline with Tween-80): 97 % of control | T/C (dose: 512.0 mg/kg/injection, schedule: Q01DX009 (oral), vehicle: saline with Tween-80): 97 % of control | T/C (dose: 1024.0 mg/kg/injection, schedule: Q01DX001 (oral), vehicle: saline with Tween-80): 100 % of control | T/C (dose: 2048.0 mg/kg/injection, schedule: Q01DX001 (oral), vehicle: saline with Tween-80): 102 % of control
